Measured values: ChEMBL document CHEMBL3233001, “Pharmacophoric modifications lead to superpotent αvβ3 integrin ligands with suppressed α5β1 activity” (J Med Chem, 2014)

Assays:
Format in all cases: protein-complex assay
Integrin alpha-V/beta-3 = Integrin alpha-V/beta-3 (Homo sapiens, UniProt P05106+P06756); experiment: Inhibition of vitronectin binding to human alphavbeta3 integrin receptor after 1 hr by competitive solid-phase binding ELISA
Integrin alpha-5/beta-1 = Integrin alpha-5/beta-1 (Homo sapiens, UniProt P05556+P08648); experiment: Inhibition of fibronectin binding to human alpha5beta1 integrin receptor after 1 hr by competitive solid-phase binding ELISA
[1] = biological target: Integrin alpha-IIb/beta-3 (Homo sapiens, UniProt P05106+P08514); experiment: Inhibition of fibrinogen binding to alpha2bbeta3 integrin receptor (unknown origin) after 1 hr by competitive solid-phase binding ELISA
Integrin alpha-V/beta-5 = Integrin alpha-V/beta-5 (Homo sapiens, UniProt P06756+P18084); experiment: Inhibition of vitronectin binding to alphavbeta5 integrin receptor (unknown origin) after 1 hr by competitive solid-phase binding ELISA
Integrin alpha-V/beta-6 = Integrin alpha-V/beta-6 (Homo sapiens, UniProt P06756+P18564); experiment: Inhibition of LAP binding to human alphavbeta6 integrin receptor after 1 hr by competitive solid-phase binding ELISA

Q: For Cc1cccc(NCCCOc2ccc(C[C@@H](CC(=O)O)NC(=O)c3ccccc3)cc2)n1, which IC50 (Integrin alpha-V/beta-3) is on record?
A: The IC50 was 110 nM.

Q: And the IC50 (Integrin alpha-5/beta-1)?
A: Its IC50 is > 10000 nM.

Q: Which results are given for COc1ccnc(NCCCOc2ccc(C[C@@H](CC(=O)O)NC(=O)c3ccc(OC(C)C)cc3)cc2)c1?
A: IC50 (Integrin alpha-V/beta-3): 0.86 nM; IC50 (Integrin alpha-5/beta-1): 126 nM; IC50 [1]: > 10000 nM; IC50 (Integrin alpha-V/beta-5): 227 nM; IC50 (Integrin alpha-V/beta-6): 20 nM

Q: Which IC50 (Integrin alpha-V/beta-3) does the source give for COc1ccnc(NCCCOc2ccc(C[C@@H](CC(=O)O)NS(=O)(=O)c3ccc(C)cc3)cc2)c1 here?
A: Its IC50 is 0.65 nM.

Q: What about the IC50 (Integrin alpha-5/beta-1) of the same compound?
A: Its IC50 is 108 nM.

Q: What about the IC50 [1] of the same compound?
A: Its IC50 is > 10000 nM.

Q: What does the source list for COc1ccnc(NCCCOc2ccc(C[C@@H](CC(=O)NO)NC(=O)c3ccc(OC(C)C)cc3)cc2)c1?
A: IC50 (Integrin alpha-V/beta-3): 638 nM; IC50 (Integrin alpha-5/beta-1): > 10000 nM

Q: COc1ccnc(NCCCOc2ccc(C[C@@H](CC(=O)NO)NS(=O)(=O)c3ccc(C)cc3)cc2)c1 was tested. Which IC50 (Integrin alpha-V/beta-3) did it give?
A: The IC50 was 75.1 nM.

Q: And the IC50 (Integrin alpha-5/beta-1)?
A: The IC50 was > 10000 nM.

Q: With COc1ccnc(NCCCOc2ccc(C[C@@H](CC(=O)O)NC(=O)c3ccc(F)cc3)cc2)c1 as the compound, how does the IC50 (Integrin alpha-V/beta-3) read?
A: Its IC50 is 1.6 nM.

Q: What about the IC50 (Integrin alpha-5/beta-1) of the same compound?
A: Its IC50 is 64.2 nM.
